The values below come from the NIST ThermoML archive (doi:10.1021/je300696c).

Series [1] in a line: refractive index (Na D-line) (dimensionless). The note with it: 293.15 K; 101.33 kPa; Liquid; Standard Abbe refractometry.
The conditions of series [2]: Liquid; for mass density: 293.15 K, 101.33 kPa, Vibrating tube method.

SMILES strings stand for the structures. Numbers after ± are expanded uncertainties.

With `CC(C)(C)O` [2-methylpropan-2-ol], the refractive index (in general, the speed of light in vacuum divided by its phase velocity in the sample) in series [1] worked out at 1.3878 ± 0.0008. In series [2], the mass density (as a rule, the mass of a sample divided by its volume) came out at 788.5 ± 0.3 kg/m3. The vapor or sublimation pressure (usually the pressure of vapour in equilibrium with the condensed phase) in series [2] (354.3 K, Ebulliometric method (Recirculating still)) stood at 96.5 ± 4.8 kPa.
Take `CCO` [ethanol]: the refractive index in series [1] is on record as 1.3609 ± 0.0007. The mass density in series [2] is 788.9 ± 0.3 kg/m3. Also, the “vapor or sublimation pressure” value in series [2] (350.21 K, Closed cell (Static) method) was 96.5 ± 4.8 kPa.
Regarding `CCCCCCCO` [heptan-1-ol], the refractive index in series [1] is recorded as 1.4227 ± 0.001. Besides, in series [2], the mass density was 821.8 ± 0.3 kg/m3. Moreover, the “vapor or sublimation pressure” value worked out at 96.5 ± 4.8 kPa in series [2] (447.7 K, Ebulliometric method (Recirculating still)) and 96.5 ± 4.8 kPa in series [2] (447.74 K, Ebulliometric method (Recirculating still)).
Take `CO` [methanol]: in series [1], the refractive index is given as 1.3285 ± 0.0007. Besides, the mass density in series [2] came out at 791.2 ± 0.3 kg/m3. The “vapor or sublimation pressure” value in series [2] (336.48 K, Closed cell (Static) method) is 96.5 ± 4.8 kPa.
As for `CCCO` [propan-1-ol], the refractive index in series [1] was determined as 1.3851 ± 0.0007. Besides, the mass density in series [2] was found to be 803.4 ± 0.3 kg/m3. For the same compound, in series [2] (369.09 K, Closed cell (Static) method), the “vapor or sublimation pressure” value came out at 96.5 ± 4.8 kPa.
